Data reported in article PMC11134387, “Cancer-Stem-Cell Phenotype-Guided Discovery of a Microbiota-Inspired Synthetic Compound Targeting NPM1 for Leukemia” (JACS Au, 2024).

Key:
[1] = tested on: primary HSCs from AML patients; test: CD34+ liquid HSC short-term culture, AML patients; type: cell-based; conditions: Homo sapiens
Description: Considering the inhibitory capacity of UCM-13369 on AML cell lines (shown in Figure 3A), the therapeutic potential was assessed in primary CD34+ cells from AML patients. Two ex vivo models were used from AML patients and healthy donors: CD34+ liquid HSC (hematopoietic stem cell) culture as a short-term model and CFU-E (colony-forming unit–erythroid) as a midterm model.
The test compound was diluted in PBS. […]
Primary cells. 1x10^6/mL total mononuclear bone marrow cells (as source of CD34+ HSCs) of healthy donors and AML patients were used. They were cultured using Stem SpanTM supplement with pencillin/streptomycin (500 U/ml), TPO (10 µg/mL), SCF (10 µg/mL), FLT3 (10 µg/mL), IL-6 (10 µg/mL) and IL-3 (10 µg/mL). After 24 h fresh medium was added. After 72 h in maintenance cells were ready to start the assays. All cells wer e maintained at 37 °C in a humidified incubator in an atmosphere of 5% CO2. […]

[2] = Plasma protein binding, equilibrium dialysis (RED); type: in vitro ADME; conditions: pH 7.4, mouse serum, read-out: Plasma protein binding, bound fraction (converted)
Description: (§1) Based on the encouraging results obtained in ex vivo models of AML, we further assessed the therapeutic potential of the new NPM1 inhibitor in vivo. Prior to the evaluation of the compound in an animal model of AML, in vivo pharmacokinetic studies were addressed. Following a single intraperitoneal administration of UCM-13369 at a dose of 25 mg/kg, levels of 200–600 μg/L were detected in mouse peripheral blood up to 6 h (Figure 6A). Plasma protein binding of the compound in mouse serum was measured using an equilibrium dialysis assay, indicating a bound fraction of 83 ± 1%. Next, the efficacy of the compound was evaluated in immunodeficient mice after injection of OCI-AML3-ffLuc-GFP cells as an AML animal model. […]
coupled to a liquid nanochromatography Easy nLC 1200 System (Thermo Scientific).
Once digested, mutant NPM1 C+ C-end sample w as injected into a EASY-Spray™ C18 column, and digestion peptides were separated by using a lineal phase gradi ent (A: 0.1% formic acid in water; B: 20% acetonitrile, 0.1% formic acid in water) for 120 min. Spectra were acquired in DDA m ode, analyzing the 10 higher intensity parent ions in each cycl e.
Proteome Discoverer (Thermo Scientific) was used to align the spectra with the C-end […]
Random exclusion of AIRs was set to 2%. […] Clusters were classifi ed according to H ADDOCK score and stru ctures w er e analyzed with UCSF ChimeraX).10 […]

[3] = Caspase-3 pathology analysis of treated mice; type: in vivo
Description: as §1
(D) IHC analysis of a poptotic cells in a representative kidney
sample from OC I-AML 3 xenograft mice treat ed with DMSO (vehicle, top) vs . UCM-
13369 treated mice (50 mg/kg, bottom) mice: H&E ( left) and cleav ed caspase- 3 (right).
Scale bar: 100 μm. (E ) Dose-response curve of UCM-13369 in human renal proximal

Question: Which results are given for COc1ccc(C2Cc3[nH]c4ccccc4c3C(CCNCC3CC3)C2N)cc1 (stereo not shown) [4b, 4-{2-[(Cyclopropylmethyl)amino]ethyl}-2-(4-methoxyphenyl)-2,3,4,9-tetrahydro-1H-carbazol-3-amine]?
Answer: IC50 [1]: 1.88 µM; fraction unbound at 6 h [2]: 0.17; Caspase-3 cleavage in kidney (in words) ([3]; 50 mg/kg): some caspase-3 cleavage; Toxicity in bone marrow and liver, caspase-3 pathology (in words) ([3]; data not shown): absence of toxicity
